How the values were obtained:
[1] = tested on: peritoneal macrophages; assay: Expression of B7-1, B7-2, CD40 and IA^d on peritoneal macrophages by flow cytometry; type: cell-based, BALB/c mice
Protocol: The expression of B7-1 and B7-2 was detected on the surface of peritoneal macrophages incubated with different concentrations of Caerulomycin A (0.05-0.1 μg/ml). Peritoneal macrophages were harvested from BALB/c mice inoculated 4 days previously with 2-3 ml of thioglycolate. The cells were washed with BSS. The macrophages were obtained by adhering for 1 h at 37° C. on plastic Petri dishes followed by washing several times in cold BSS. The macrophages (1×10^6) were stimulated with 10 μg/ml of LPS for 24, 48 and 72 h in the presence and absence of Caerulomycin A (0.05-0.1 μg/ml) at 37° C. and 7% CO2. Then the cells were harvested and stained with their respective antibodies. Briefly, the cells were centrifuged (1200×g, 4° C., 5 min) and the supernatant was aspirated. The cells were washed 3× with 1% BSA, 0.1% sodium azide in PBS. In the first step, the cells (1×10^6) were incubated with biotinylated anti-mouse B7-1, CD40 and I-A^d (1 μg/100 μl) Abs for 45 min at 4° C. In the next step cells were stained with streptavidin FITC (0.5 μg/100 μl) or PE conjugated anti-mouse B7-2 (0.5 μg/100 μl) Abs and incubated for 45 min. Usual steps of washing were followed at each step. Finally the cells were washed five times and fixed in paraformaldehyde. The stained cells were acquired on a FACScan as mentioned for CD28/CTLA-4. Since the antigen presenting cells express B7-1 and B7-2, which are the ligands of CTLA-4 and CD28. […] The expression of IA^d was detected on the surface of peritoneal macrophages incubated with different concentrations of Caerulomycin A (0.05-0.1 μg/ml). Peritoneal macrophages were harvested from BALB/c mice inoculated 4 days previously with 2-3 ml of thioglycolate. The cells were washed with BSS. The macrophages were obtained by adhering for 1 h at 37° C. on plastic Petri dishes followed by washing several times in cold BSS. The macrophages (1×10^6) were stimulated with 10 μg/ml of LPS for 24, 48 and 72 h in the presence and absence of Caerulomycin A (0.05-0.1 μg/ml) at 37° C. and 7% CO2. Then the cells were harvested and stained with their respective antibodies. Briefly, the cells were centrifuged (1200×g, 4° C., 5 min) and the supernatant was aspirated. The cells were washed 3× with 1% BSA, 0.1% sodium azide in PBS. In the first step, the cells (1×10^6) were incubated with biotinylated anti-mouse I-A^d (1 μg/100 μl) Abs for 45 min at 4° C. In the next step cells were stained with streptavidin FITC (0.5 μg/100 μl) and incubated for 45 min. Usual steps of washing were followed at each step. Finally the cells were washed five times and fixed in paraformaldehyde. The stained cells were acquired on a FACScan as mentioned for CD28/CTLA-4. […] This may indicate that Caerulomycin A may inhibit the processing and presentation of antigen by APC.

[2] = tested on: B cells; assay: Secretion of antibodies
[3] = tested on: Th2 clones; assay: Proliferation of Th2 clones; type: cell-based; details: stimulated with anti-CD3 Ab or conalbumin pulsed γ-irradiated splenocytes; Caerulomycin A 0.00625-0.1 μg/ml
Protocol: The proliferation of Th2 clones was measured using cells harvested on 7-9 days after stimulation with antigen pulsed splenocytes. The dead cells were removed by ficoll-histopaque. Th2 clones (5×10^4 cells/well) were either stimulated with anti-CD3 Ab (0.1 μg/ml and 0.5 μg/ml) or incubated with γ-irradiated (3000 R) syngeneic splenocytes (5×10^5 cells/well) and conalbumin (100 μg/ml) in 200 μl RPMI/FCS-10% medium and with various concentrations of Caerulomycin A (0.00625-0.1 μg/ml). The control cultures consisting of Th2 cells incubated with conalbumin alone and γ-irradiated syngeneic splenocytes (no antigen) were also kept. The cultures were kept in a flat bottom 96 well microtitre plate and the cells were incubated at 37° C. and 7% CO2. After 48 h, the cultures were pulsed with 0.5 μCi of [^3H]-thymidine and harvested 16 h later. Radioactivity incorporated was measured by liquid scintillation counting and data are expressed as mean counts per minute (cpm).

[4] = tested on: D10G4.1 Th2 clones; assay: IL-4 release by Th2 clones; type: cell-based; details: stimulated with anti-CD3 Ab (0.1 and 0.5 μg/ml) or conalbumin pulsed APC
[5] = LPS 10 μg/ml, Caerulomycin A 0.05-0.1 μg/ml

**Q.** `COc1cc(/C=N/O)nc(-c2ccccn2)c1` [Caerulomycin A, (E)-4-methoxy-2,2′-bipyridine-6-carbaldehyde oxime] was tested. Which “display of B7-2” value [1, 5] did it give?
**A.** The value was “decreased the display”.

**Q.** What about the “expression of B7-1” value [1, 5] of the same molecule?
**A.** The value was “enhanced the expression”.

**Q.** What about the “expression of IA^d” value [1, 5] of the same molecule?
**A.** Its value is “down regulated the expression”.

**Q.** What about the “expression of CD40” value ([1]; after 72 h) of the same molecule?
**A.** The value was “Slight increase in the expression”.

**Q.** What about the “secretion of IgG1 type of antibodies” value [2] of the same molecule?
**A.** The value was “inhibited the secretion”.

**Q.** And the “secretion of IgG2a type of antibodies” value [2]?
**A.** Its value is “inhibited the secretion”.

**Q.** What about the “proliferation of Th2 clones” value [3] of the same molecule?
**A.** The value was “substantially restricted the proliferation”.

**Q.** What about the “release of IL-4” value [4] of the same molecule?
**A.** Its value is “suppressed the release”.
